Measurements: paper PMC6010545, “Identification of a Novel Polyamine Scaffold With Potent Efflux Pump Inhibition Activity Toward Multi-Drug Resistant Bacterial Pathogens” (Frontiers in Microbiology, 2018)
Where two headings read alike, the source gives them in different places.

Key:
[1] = system: P. aeruginosa proficient (1419) and deficient (1418) strain; assay: Aztreonam combination testing in efflux proficient and deficient strains; assay type: cell-based; conditions: strain 1419 (efflux proficient); polyamine 12.5 μg mL^-1, ½ X MIC aztreonam
Method: FIGURE 6 Confirming efflux pump inhibition by polyamines using efflux deficient strains. (A) A P. aeruginosa proficient (1419) and deficient (1418) strain were subjected to combination testing of the polyamines at 12.5 μg mL^-1 and ½ X MIC of aztreonam. Fold potentiation was calculated by dividing the CFU mL^-1 for aztreonam only by the CFU mL^-1 of the combined treatment groups. (B) Lead polyamine 247 was assessed for its ability to potentiate the activity of chloramphenicol toward S. aureus strain United States 300 and its norA mutant. Shown is the potentiated chloramphenicol EC90 calculated as described in A. Error bars are shown ± SEM.

A. baumannii (1643) = assay: Potentiation of levofloxacin; assay type: cell-based; conditions: increasing polyamine concentration
[2] = system: tetracycline-resistant P. aeruginosa isolate 1419; assay: Checkerboard potentiation assay with tetracycline; assay type: cell-based, Pseudomonas aeruginosa
Method: Scaffold ranking library samples and individual polyamines were screened using checkerboard inhibitory assays to assess the potentiation of tetracycline and chloramphenicol. The test utilized a 96-well plate microtiter assay where the concentration of the scaffold or individual polyamine was decreased from 25 to 0.8 μg mL^-1 (average molarity of mixture samples 65 to 4 μM) along the rows, and the concentration of tetracycline or chloramphenicol was increased from 0.4 to 100 μM across the columns. […] However, with the known antibiotics, we report EC90 values in μM, which more accurately describes purified compounds. Plates were incubated statically at 37°C for 20 h, and the optical density (OD600) was determined using a Synergy 2 plate reader (BioTek). Potentiation modeling (detailed below) was performed to determine fold change in the 50 and 90% effective concentration of tetracycline or chloramphenicol.
Potentiation was quantified using a mathematical model developed by our group to assess the ability of library samples and individual compounds to effectively enhance the activity of tetracycline or chloramphenicol ([Hoel, 1987]). […] In this way, only libraries and compounds that potentiated tetracycline or chloramphenicol activity were pursued. The model is based on the following equation for modeling the percentage activity of a mixture of two agents with independent action ([Hoel, 1987]):
%Antibiotic & Comp(X1,X2)=%Antibiotic(X1)+%Comp(X2)−%Antibiotic(X1)⋅%Comp(X2)
Here, x1 and x2 are the concentrations of antibiotic (tetracycline or chloramphenicol) and library/compound (Comp) tested, respectively. This equation can be rearranged to model the effective percent activity (EC) of the antibiotic alone, after accounting for compound activity:
Eff%Antibiotic(X1)=%Antibiotic & Compound(X1,X2)−%Compound(X2)/1−%Compound(X2)
Thus, the model-adjusted checkerboards show the antibiotic activity post-potentiation, and from that one can determine the true change in Mic.

MTT cytotoxicity assay = assay type: cell-based; conditions: human, 25 μg mL^-1, 48 h, read-out: percent recovery (cell viability)
Method: To assess toxicity of polyamine compounds we used HepG2 human liver carcinoma cells and Hek293T human embryonic kidney epithelial cells. The viability of cell lines was determined using a 3-(4,5-dimethylthiazol-2-yl)-2,5-diphenyltetrazolium bromide (MTT) molecular probe as previously described by our group ([Fleeman et al., 2015]). Briefly, 247, 266, 271 (Hek293T), or 250, 271, 314 (HepG2), alongside control efflux pump inhibitor PaβN, were diluted in 10% DMF from 25 μg mL^-1 to 3 μg mL^-1 using twofold dilutions, before being added to cells in DMEM with 10% FBS and 1% penicillin/streptomycin. Cells were then incubated for 48 h at 37°C with 5% CO2. Following this, viability was assessed by the addition of MTT and measuring the OD570 in a Biotek plate reader. Percent recovery was determined compared to no drug controls.

NCCC[C@H](CN)NC[C@H](Cc1ccccc1)NCCc1ccccc1 [compound 271]
potentiation of aztreonam [1]: best potentiators of aztreonam
potentiation of levofloxacin (A. baumannii (1643)): dose response curve of antibiotic potentiation
FP* (fold potentiation of tetracycline EC50) ([2]; 25 µg ml-1 TPI, EC50 tetracycline no TPI / with TPI): 8.2 fold
FP# (fold potentiation of tetracycline EC90) ([2]; 25 µg ml-1 TPI, EC90 tetracycline no TPI / with TPI): 8.5 fold
FP* (fold potentiation of tetracycline EC50) ([2]; EC50 tetracycline without EPI / with EPI): 8.2 fold
FP# (fold potentiation of tetracycline EC90) ([2]; EC90 tetracycline without EPI / with EPI): 8.5 fold
EC50 ([2]; Pseudomonas aeruginosa, 20 h, inhibitor alone, 25 μg mL^-1 highest concentration tested, * = EC50, read-out: EPI* (inhibitory concentration of efflux pump inhibitor alone)): > 25 µg/mL
TPI (inhibitory concentration of polyamine alone) ([2]; polyamine alone, 25 µg ml-1 highest tested): > 25 µg/mL
recovery at 48 h, 25 μg mL^-1 (MTT cytotoxicity assay; Hek293T human embryonic kidney epithelial cells, vs solvent only controls): 75%
recovery at 48 h, 25 μg mL^-1 (MTT cytotoxicity assay; HepG2 human liver carcinoma cells): 74%
